Literature values, collected in US20230364009A1, “Implantable Medical Device for the Delivery of an Antipsychotic” (Celanese EVA Performance Polymers LLC, priority 2022, published 2023).

Tests used:
[1] = biological target: dopamine Type 2 (D2) receptors (Homo sapiens, UniProt P14416)
[2] = biological target: T1, serotonin 5HT1c receptors (Homo sapiens, UniProt P28335)
T1 sequence (P28335 33-458): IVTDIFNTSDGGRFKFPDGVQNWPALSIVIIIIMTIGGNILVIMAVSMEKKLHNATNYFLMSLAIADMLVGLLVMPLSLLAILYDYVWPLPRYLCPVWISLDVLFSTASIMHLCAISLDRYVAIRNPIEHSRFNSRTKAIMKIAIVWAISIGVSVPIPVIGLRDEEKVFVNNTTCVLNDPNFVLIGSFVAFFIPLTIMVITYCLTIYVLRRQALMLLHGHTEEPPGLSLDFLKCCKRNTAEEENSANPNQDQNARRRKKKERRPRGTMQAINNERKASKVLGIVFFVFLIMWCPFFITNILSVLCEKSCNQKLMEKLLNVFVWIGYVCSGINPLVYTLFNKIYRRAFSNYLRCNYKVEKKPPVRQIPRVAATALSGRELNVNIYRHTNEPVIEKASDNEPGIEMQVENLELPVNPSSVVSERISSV

[3] = biological target: serotonin 5HT1D receptors (Homo sapiens, UniProt P28221)
[4] = biological target: T2, serotonin 5HT1A receptors (Homo sapiens, UniProt P08908)
T2 sequence (P08908 1-422): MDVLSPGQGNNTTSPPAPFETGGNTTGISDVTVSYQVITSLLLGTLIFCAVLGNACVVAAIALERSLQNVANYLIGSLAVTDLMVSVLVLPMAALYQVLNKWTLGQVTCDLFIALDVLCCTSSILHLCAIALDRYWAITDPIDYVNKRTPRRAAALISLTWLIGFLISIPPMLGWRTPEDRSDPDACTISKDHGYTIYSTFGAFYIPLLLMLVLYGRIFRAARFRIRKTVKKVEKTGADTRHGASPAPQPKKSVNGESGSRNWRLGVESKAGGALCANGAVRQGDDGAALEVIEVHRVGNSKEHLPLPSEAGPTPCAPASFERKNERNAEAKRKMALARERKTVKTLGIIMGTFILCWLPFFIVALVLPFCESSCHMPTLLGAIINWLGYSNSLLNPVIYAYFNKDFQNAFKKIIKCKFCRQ

dopamine D1 = dopamine D1 (Homo sapiens, UniProt P21728)
[5] = system: haloperidol-sensitive sigma site
β1 adrenergic receptors = β1 adrenergic receptors (Homo sapiens, UniProt P08588)
β2 adrenergic receptors = β2 adrenergic receptors (Homo sapiens, UniProt P07550)
Chain of β2 adrenergic receptors (P07550 whole entry): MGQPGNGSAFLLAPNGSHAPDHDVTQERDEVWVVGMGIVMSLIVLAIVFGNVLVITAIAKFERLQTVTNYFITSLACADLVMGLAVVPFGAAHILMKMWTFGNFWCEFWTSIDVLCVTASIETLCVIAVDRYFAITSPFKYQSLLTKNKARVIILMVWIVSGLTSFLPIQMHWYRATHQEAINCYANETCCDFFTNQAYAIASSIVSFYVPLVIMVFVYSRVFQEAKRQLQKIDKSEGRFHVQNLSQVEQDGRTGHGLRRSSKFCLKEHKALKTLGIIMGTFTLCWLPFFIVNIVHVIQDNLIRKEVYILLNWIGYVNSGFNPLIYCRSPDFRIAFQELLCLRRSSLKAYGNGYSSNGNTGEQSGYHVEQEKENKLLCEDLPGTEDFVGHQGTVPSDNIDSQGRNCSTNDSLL

Chain of dopamine Type 2 (D2) receptors (P14416 whole entry): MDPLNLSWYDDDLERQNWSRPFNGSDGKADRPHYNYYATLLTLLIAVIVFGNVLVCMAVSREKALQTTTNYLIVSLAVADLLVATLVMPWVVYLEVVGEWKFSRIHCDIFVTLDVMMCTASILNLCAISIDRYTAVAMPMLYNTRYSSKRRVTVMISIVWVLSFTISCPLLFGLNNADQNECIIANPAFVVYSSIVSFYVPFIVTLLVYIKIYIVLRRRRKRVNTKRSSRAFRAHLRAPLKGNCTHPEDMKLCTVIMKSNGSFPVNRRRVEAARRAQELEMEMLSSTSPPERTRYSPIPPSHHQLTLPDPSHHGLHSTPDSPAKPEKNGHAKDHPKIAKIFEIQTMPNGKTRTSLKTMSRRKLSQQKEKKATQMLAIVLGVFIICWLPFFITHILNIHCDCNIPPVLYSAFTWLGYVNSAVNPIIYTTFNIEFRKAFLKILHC
Chain of serotonin 5HT1D receptors (P28221 whole entry): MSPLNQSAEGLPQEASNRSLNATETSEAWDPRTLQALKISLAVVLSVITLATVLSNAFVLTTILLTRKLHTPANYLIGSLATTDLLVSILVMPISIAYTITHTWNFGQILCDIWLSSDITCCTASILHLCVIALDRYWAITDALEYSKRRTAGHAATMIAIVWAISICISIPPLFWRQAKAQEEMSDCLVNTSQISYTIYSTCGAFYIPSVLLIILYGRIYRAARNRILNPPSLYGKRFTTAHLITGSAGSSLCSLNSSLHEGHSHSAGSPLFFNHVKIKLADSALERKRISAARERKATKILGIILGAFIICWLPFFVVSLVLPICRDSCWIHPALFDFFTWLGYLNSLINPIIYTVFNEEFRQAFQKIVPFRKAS
Chain of dopamine D1 (P21728 whole entry): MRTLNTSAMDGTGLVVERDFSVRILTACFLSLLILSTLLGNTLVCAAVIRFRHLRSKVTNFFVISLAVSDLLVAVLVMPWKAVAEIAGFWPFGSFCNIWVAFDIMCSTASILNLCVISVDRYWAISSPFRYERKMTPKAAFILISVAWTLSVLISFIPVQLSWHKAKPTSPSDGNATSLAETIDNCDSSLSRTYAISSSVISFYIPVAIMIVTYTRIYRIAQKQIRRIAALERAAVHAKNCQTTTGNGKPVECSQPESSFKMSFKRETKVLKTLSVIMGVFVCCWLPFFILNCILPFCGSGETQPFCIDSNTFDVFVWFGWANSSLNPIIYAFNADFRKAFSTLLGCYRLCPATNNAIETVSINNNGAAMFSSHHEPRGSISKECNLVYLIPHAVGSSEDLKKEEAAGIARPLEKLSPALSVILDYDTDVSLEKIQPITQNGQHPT
Chain of β1 adrenergic receptors (P08588 whole entry): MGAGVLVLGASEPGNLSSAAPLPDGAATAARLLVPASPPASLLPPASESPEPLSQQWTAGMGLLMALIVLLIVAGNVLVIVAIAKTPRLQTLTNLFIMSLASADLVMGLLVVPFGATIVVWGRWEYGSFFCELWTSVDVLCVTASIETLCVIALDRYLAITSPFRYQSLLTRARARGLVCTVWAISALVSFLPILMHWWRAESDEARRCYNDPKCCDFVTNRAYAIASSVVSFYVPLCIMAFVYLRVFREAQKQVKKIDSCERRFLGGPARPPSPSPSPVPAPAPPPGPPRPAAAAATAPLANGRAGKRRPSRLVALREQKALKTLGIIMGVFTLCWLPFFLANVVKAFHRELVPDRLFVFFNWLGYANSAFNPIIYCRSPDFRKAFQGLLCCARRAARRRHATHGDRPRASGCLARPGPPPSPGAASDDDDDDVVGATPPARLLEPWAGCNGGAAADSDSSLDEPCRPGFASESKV

For `Cc1nc2n(c(=O)c1CCN1CCC(c3noc4cc(F)ccc34)CC1)CCCC2` [Risperidone, risperidone], the affinity [1] is given as “high affinity”, the affinity (α1 adrenergic receptors) is given as “high affinity” and the affinity (α2 adrenergic receptors) is given as “high affinity”. For the same compound, the affinity [2] was “low to moderate affinity”, the affinity [3] was “low to moderate affinity” and the affinity [4] was “low to moderate affinity”. For the same compound, the affinity (dopamine D1) was “weak affinity”, the affinity [5] was “weak affinity” and the affinity (β1 adrenergic receptors) was “no affinity”. For the same compound, the affinity (β2 adrenergic receptors) was “no affinity”.
